# From patent US6924306B2, “Method for treating ocular hypertension” (priority 2000, dated 2005)
# Where two headings read alike, the source gives them in different places.
# Columns and labels:
# [1] = biological target: T1, large-conductance calcium-activated potassium (maxi-K) channels from bovine aortic smooth muscle (Bos taurus, UniProt Q28204); test: Patch clamp recordings of maxi-K channel currents in excised inside-out membrane patches; type: biochemical; settings: for block of channel activity / effect on channel open probability: 1 μM
# T1 construct: membrane patches excised from cultured bovine aortic smooth muscle cells; endogenous in cells; host or cells: cultured bovine aortic smooth muscle cells
# Protocol: Pipettes were typically filled with solutions containing (mM): 150 KCl, 10 Hepes (4-(2-hydroxyethyl)-1-piperazine […]), 1 Mg, 0.01 Ca, and adjusted to pH 7.20 with 3.7 mM KOH. After forming a high resistance (>10^9 ohms) seal between the sarcolemmal membrane and the pipette, the pipette was withdrawn from the cell, forming an excised inside-out membrane patch. […] An AXOPATCH 1C amplifier (Axon Instruments, Foster City, Calif.) with a CV-4 headstage was used to control the voltage and to measure the currents flowing across the membrane patch. The input to the headstage was connected to the pipette solution with a Ag/AgCl wire, and the amplifier ground was connected to the bath solution with a Ag/AgCl wire covered with a tube filled with agar dissolved in 0.2 M KCl. Maxi-K channels were identified by their large single channel conductance (˜250 pS) and sensitivity of channel open probability to membrane potential and intracellular calcium concentration.
# Data were stored on a RACAL STORE 4DS FM tape recorder (Racal Recorders, Vienna, Va.) or on digital video tape using a video casette recorder after digitizing the signal with VR-10 (Instrutech Corp., Belmont, N.Y.) PCM video encoder. The signal was also recorded on chart paper with a GOULD 2400S chart recorder (Gould Inc., Cleveland, Ohio). For quantitative analysis, the data was played into a DEC 11-73 (Digital Equipment Corp., Maynard, Mass.) after digitization with a DT2782-8D1A analogue to digital converter (Data Translation Inc., Marlboro, Mass.), or played into a Mac IIx or Quadra 700 computer (Apple Computers) after digitization with an ITC-16 interface (Instrutech Corp., Belmont, N.Y.).
# [2] = biological target: T2, [125I]ChTX receptor in bovine aortic sarcolemma membrane vesicles (Bos taurus, UniProt Q28204); test: [125I]ChTX binding assay with sarcolemma membrane vesicles; settings: for inhibition at 10 µM: read-out: inhibition of [125I]ChTX binding
# T2 construct: bovine aortic sarcolemma membrane vesicles; from tissue; host or cells: bovine aortic sarcolemma membrane vesicles
# Protocol: The interaction of [^125I]ChTX with bovine aortic sarcolemma membrane vesicles was determined under conditions as described (Vazquez et al., 1989, J. Biol. Chem. 264, 20902-20909). Briefly, sarcolemma membrane vesicles were incubated in 12×75 polystyrene tubes with ca. 25 pM [^125I]ChTX (2200 Ci/mmol), in the absence or presence of test compound, in a media consisting of 20 mM NaCl, 20 mM Tris-HCl pH 7.4, 0.1% bovine serum albumin, 0.1% digitonin. Nonspecific binding was determined in the presence of 10 nM ChTX. Incubations were carried out at room temperature until ligand binding equilibrium is achieved at ca. 90 min. At the end of the incubation period, samples were diluted with 4 mL ice-cold 100 mM NaCl, 20 mM Hepes-Tris pH 7.4 and filtered through GF/C glass fiber filters that have been presoaked in 0.5% polyethylenimine. Filters were rinsed twice with 4 mL ice-cold quench solution. Radioactivity associated with filters was determined in a gamma counter. Specific binding data in the presence of each compound (difference between total binding and nonspecific binding) was assessed relative to an untreated control.
# [3] = concentrations from 1 nM to 100 μM
# T2 sequence (Q28204 whole entry): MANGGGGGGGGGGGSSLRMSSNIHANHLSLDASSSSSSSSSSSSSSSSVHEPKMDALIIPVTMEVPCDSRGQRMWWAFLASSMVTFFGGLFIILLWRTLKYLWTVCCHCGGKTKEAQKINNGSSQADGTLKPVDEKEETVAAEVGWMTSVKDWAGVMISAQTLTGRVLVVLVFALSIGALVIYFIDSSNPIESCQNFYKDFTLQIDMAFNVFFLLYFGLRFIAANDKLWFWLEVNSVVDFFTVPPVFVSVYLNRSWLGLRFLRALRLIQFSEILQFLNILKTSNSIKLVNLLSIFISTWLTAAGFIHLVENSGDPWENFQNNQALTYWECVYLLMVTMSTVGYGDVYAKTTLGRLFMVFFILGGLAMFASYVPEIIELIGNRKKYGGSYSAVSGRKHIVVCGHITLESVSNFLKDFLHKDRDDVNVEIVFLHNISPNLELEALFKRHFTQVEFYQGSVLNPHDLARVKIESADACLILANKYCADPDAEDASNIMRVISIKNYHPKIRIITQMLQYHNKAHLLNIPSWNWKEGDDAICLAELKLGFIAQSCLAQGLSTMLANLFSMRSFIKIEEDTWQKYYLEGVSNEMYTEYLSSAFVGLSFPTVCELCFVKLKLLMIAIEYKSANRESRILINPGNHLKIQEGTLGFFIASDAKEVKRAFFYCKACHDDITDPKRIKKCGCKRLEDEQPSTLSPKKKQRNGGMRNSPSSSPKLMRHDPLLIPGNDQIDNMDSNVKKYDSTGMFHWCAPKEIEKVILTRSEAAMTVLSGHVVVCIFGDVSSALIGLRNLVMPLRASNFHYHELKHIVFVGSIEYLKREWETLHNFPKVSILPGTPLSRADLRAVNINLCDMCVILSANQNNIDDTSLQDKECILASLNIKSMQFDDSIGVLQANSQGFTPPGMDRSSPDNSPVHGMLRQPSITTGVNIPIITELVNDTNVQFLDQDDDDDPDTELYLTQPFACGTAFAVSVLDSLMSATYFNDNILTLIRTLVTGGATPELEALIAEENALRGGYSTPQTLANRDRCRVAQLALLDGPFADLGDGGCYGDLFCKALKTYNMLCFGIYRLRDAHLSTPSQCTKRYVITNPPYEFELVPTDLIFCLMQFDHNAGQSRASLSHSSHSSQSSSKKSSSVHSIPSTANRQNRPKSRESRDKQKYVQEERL
# T2 sequence (Q28067 whole entry partner): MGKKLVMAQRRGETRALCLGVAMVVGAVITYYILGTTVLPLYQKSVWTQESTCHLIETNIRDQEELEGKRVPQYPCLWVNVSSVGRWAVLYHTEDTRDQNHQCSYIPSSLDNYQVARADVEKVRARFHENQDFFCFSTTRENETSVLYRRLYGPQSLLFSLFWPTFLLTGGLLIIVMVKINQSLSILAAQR
# T1 sequence (Q28204 whole entry): as the sequence (Q28204 whole entry) above
# T1 sequence (Q28067 whole entry partner): as the sequence (Q28067 whole entry partner) above
compound,measurement,setting,value
CC(C)=CC1O[C@H]2C3OC34C(=CC[C@]3(C)[C@@]5(C)c6[nH]c7cccc(CC8OC8(C)C)c7c6C[C@@H]5CC[C@@]43O)O[C@@H]2C(C)(C)O1 (stereo partly drawn) [Compound G],IC50,[1],< 0.1 nM
same,channels blocked,[1]; 0.1 nM,82%
same,channels blocked,[1]; 1 nM,98.6%
same,channel block,[1]; 10 nm,> 99%
same,inhibition at 10 µM,[2],35%
"COC(=O)C12C(O)C[C@@H](C(C)(C)O)OC1CC[C@@]1(C)[C@H]2CC[C@H]2Cc3c([nH]c4ccccc34)[C@@]21C (stereo partly drawn) [Compound E, methyl hydroxypaspalinate]",IC50,[1],> 10000 nM
same,strength as blocker of maxi-K channels compared with Compound C,[1],weaker
same,block of channel activity / effect on channel open probability,[1],no significant effect
same,block of channel activity,"[1]; 10 μM, slowly increasing over 5-10 minutes",incomplete block
same,effect on [125I]ChTX binding,[2]; [3],did not affect
CC(C)=CCc1cccc2[nH]c3c(c12)C[C@@H]1CC[C@@]2(O)C45OC4[C@@H]4OC(C=C(C)C)OC(C)(C)[C@H]4OC5=CC[C@]2(C)[C@@]31C (stereo partly drawn) [Compound C],IC50,[1],< 10 nM
same,block of maxi-K channels,[1]; 10 nM,rapid and complete block
same,reversal of block during washout,"[1]; 10 nM, brief (~10 min) washout",not reversed
same,inhibition at 10 µM,[2],29%
CC(C)=CCOC(C)(C)[C@@H]1CC2OC23[C@H](CC[C@@]2(C)[C@H]3CC[C@H]3Cc4c([nH]c5ccccc45)[C@@]32C)O1 (stereo partly drawn) [Compound A],IC50,[1],~100 nM
same,strength as blocker of maxi-K channels compared with Compound C,[1],weaker
same,block of maxi-K channels,[1]; 10 nM,blocked a small fraction of channel activity
same,block of channel activity,[1]; 100 nM,approximately one half
same,block of channel activity / effect on channel open probability,[1],nearly all
same,inhibition at 10 µM,[2],2%
CC(C)=CCOC(C)(C)[C@H]1O[C@H]2CC[C@]3(C)[C@@]4(C)c5[nH]c6ccc(CC=C(C)C)cc6c5C[C@@H]4CC[C@@]3(O)C23OC3[C@@H]1O (stereo partly drawn) [Compound B],IC50,[1],< 1 nM
same,Ki,[1],< 1 nM
same,block of maxi-K channels,[1]; 1 nM,nearly complete block
"CC1(C)ON=C2C=C3[C@H](CC[C@@]4(C)[C@@]3(O)CC[C@H]3Cc5c([nH]c6ccccc56)[C@@]34C)O[C@@H]21 [Compound F, Paxizoline]",decrease in channel activity,[1]; 10 nM,~50%
same,IC50,"[1]; excised inside-out patches, compound added to bath, read-out: [50% CHANNEL BLOCK]",~10 nM
same,effect on [125I]ChTX binding,[2]; concentrations above 5 μM,concentration-dependent inhibition
same,effect on amount of toxin bound to its receptor,[2]; range of 50 nM to 2 μM,small increase
same,maximum level of inhibition (saturation),[2]; tested from 1 nM to 100 μM,ca. 32 % control
"CC(C)(O)[C@@H]1CC(O)C2(C(=O)O)C(CC[C@@]3(C)[C@H]2CC[C@H]2Cc4c([nH]c5ccccc45)[C@@]23C)O1 (stereo partly drawn) [Compound D, hydroxypaspalinic acid]",IC50,[1],~1000 nM
same,strength as blocker of maxi-K channels compared with Compound C,[1],weaker
same,reduction in channel open probability,[1]; 10 nM,< 50%
same,block of channel activity / effect on channel open probability,[1],complete block was not observed
same,effect on [125I]ChTX binding,[2]; [3],did not have any effect
